This is an account of results in patent US8993752B2, “Neprilysin inhibitors” (Theravance Biopharma R&D IP, LLC, priority 2011, dated 2015).

The target in this experiment is T1, human NEP (Homo sapiens, UniProt P08473).
T1 construct: purchased R&D Systems, Minneapolis, Minn; 1182-ZN
T1 sequence (P08473 whole entry): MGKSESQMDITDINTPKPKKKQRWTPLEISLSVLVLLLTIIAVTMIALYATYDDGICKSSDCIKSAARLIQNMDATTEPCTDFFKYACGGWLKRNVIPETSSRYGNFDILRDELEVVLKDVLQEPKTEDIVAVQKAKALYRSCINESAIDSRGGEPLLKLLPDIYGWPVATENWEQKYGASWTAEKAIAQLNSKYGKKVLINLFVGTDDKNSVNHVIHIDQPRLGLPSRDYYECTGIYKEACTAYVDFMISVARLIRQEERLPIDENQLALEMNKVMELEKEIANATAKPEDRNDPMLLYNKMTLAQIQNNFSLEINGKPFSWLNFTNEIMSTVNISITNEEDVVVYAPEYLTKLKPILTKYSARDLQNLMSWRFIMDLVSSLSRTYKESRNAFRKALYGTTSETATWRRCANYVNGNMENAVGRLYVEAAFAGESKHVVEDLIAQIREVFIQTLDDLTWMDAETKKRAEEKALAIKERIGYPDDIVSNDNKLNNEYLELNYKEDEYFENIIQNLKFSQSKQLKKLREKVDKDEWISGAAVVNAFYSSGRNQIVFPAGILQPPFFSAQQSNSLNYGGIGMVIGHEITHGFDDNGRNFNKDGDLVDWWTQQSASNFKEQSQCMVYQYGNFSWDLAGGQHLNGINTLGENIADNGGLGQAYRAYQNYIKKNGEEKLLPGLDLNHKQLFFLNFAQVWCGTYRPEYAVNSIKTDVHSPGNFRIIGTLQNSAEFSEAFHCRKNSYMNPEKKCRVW
In words: In vitro enzyme inhibition assay at human NEP (fluorogenic peptide substrate). The settings on record: recombinant human NEP; substrate Mca-D-Arg-Arg-Leu-Dap-(Dnp)-OH 10 μM; 37° C.; values given as ranges; read-out: pKi values at human NEP (converted). In kind it is biochemical. The protocol:
The inhibitory activities of compounds at human and rat neprilysin (EC 3.4.24.11; NEP) and human angiotensin converting enzyme (ACE) were determined using in vitro assays as described below.
Recombinant human NEP and recombinant human ACE were obtained commercially (R&D Systems, Minneapolis, Minn., catalog numbers 1182-ZN and 929-ZN, respectively). The fluorogenic peptide substrate Mca-D-Arg-Arg-Leu-Dap-(Dnp)-OH (Medeiros et al. (1997) Braz. J. Med. Biol. Res. 30:1157-62; Anaspec, San Jose, Calif.) and Abz-Phe-Arg-Lys(Dnp)-Pro-OH (Araujo et al. (2000) Biochemistry 39:8519-8525; Bachem, Torrance, Calif.) were used in the NEP and ACE assays respectively.
The assays were performed in 384-well white opaque plates at 37° C. using the fluorogenic peptide substrates at a concentration of 10 μM in Assay Buffer (NEP: 50 mM HEPES, pH 7.5, 100 mM NaCl, 0.01% polyethylene glycol sorbitan monolaurate (Tween-20), 10 μM ZnSO4; ACE: 50 mM HEPES, pH 7.5, 100 mM NaCl, 0.01% Tween-20, 1 μM ZnSO4).
Test compounds were assayed over the range of concentrations from 10 μM to 20 pM. Test compounds were added to the enzymes and incubated for 30 minute at 37° C. prior to initiating the reaction by the addition of substrate. Reactions were terminated after 20 minutes of incubation at 37° C. by the addition of glacial acetic acid to a final concentration of 3.6% (v/v).
Plates were read on a fluorometer with excitation and emission wavelengths set to 320 nm and 405 nm, respectively Inhibition constants were obtained by nonlinear regression of the data using the equation (GraphPad Software, Inc., San Diego, Calif.): v=v0/[1+(I/K′)] where v is the reaction rate, v0 is the uninhibited reaction rate, I is the inhibitor concentration and K′ is the apparent inhibition constant.
Compounds of the invention were tested in this assay and found to have pKi values at human NEP as follows.
Consider `O=C(N[C@H](Cc1ccccc1Cl)[C@@H](O)C(=O)O)c1cc(C(=O)O)n(Cc2ccc(Cl)cc2)n1` [Example 2-1, 5-[(1R,2R)-2-Carboxy-1-(2-chloro-benzyl)-2-hydroxy-ethylcarbamoyl]-2-(4-chloro-benzyl)-2H-pyrazole-3-carboxylic acid], for which the Ki was 1.26 to 10 nM.

As to `O=C(N[C@H](Cc1ccccc1Cl)[C@@H](O)C(=O)O)c1cc(C(=O)O)n(Cc2c(F)cc(Cl)cc2F)n1` [Example 2-2, 5-[(1R,2R)-2-Carboxy-1-(2-chloro-benzyl)-2-hydroxy-ethylcarbamoyl]-2-(4-chloro-2,6-difluoro-benzyl)-2H-pyrazole-3-carboxylic acid], the Ki was 1.26 to 10 nM.

For `O=C(N[C@H](Cc1ccccc1Cl)[C@@H](O)C(=O)O)c1cc(C(=O)O)n(Cc2ccc(Cl)c(SC(F)(F)F)c2)n1` [Example 2-9, 5-[(1R,2R)-2-Carboxy-1-(2-chloro-benzyl)-2-hydroxy-ethylcarbamoyl]-2-(4-chloro-3-trifluoromethylsulfanyl-benzyl)-2H-pyrazole-3-carboxylic acid], the Ki was 12.6 to 100 nM.

`O=C(N[C@H](Cc1ccccc1Cl)[C@@H](O)C(=O)O)c1cc(C(=O)O)n(Cc2cccc(Cl)c2)n1` [Example 2-10, 5-[(1R,2R)-2-Carboxy-1-(2-chloro-benzyl)-2-hydroxy-ethylcarbamoyl]-2-(3-chloro-benzyl)-2H-pyrazole-3-carboxylic acid]: the Ki is 1.26 to 10 nM.

Regarding `COc1cccc(Cn2nc(C(=O)N[C@H](Cc3ccccc3Cl)[C@@H](O)C(=O)O)cc2C(=O)O)c1` [Example 2-11, 5-[(1R,2R)-2-Carboxy-1-(2-chloro-benzyl)-2-hydroxy-ethylcarbamoyl]-2-(3-methoxy-benzyl)-2H-pyrazole-3-carboxylic acid], the Ki was 1.26 to 10 nM.

Consider `O=C(N[C@H](Cc1ccccc1Cl)[C@@H](O)C(=O)O)c1cc(C(=O)O)n(Cc2ccc(Cl)cc2C(F)(F)F)n1` [Example 2-12, 5-[(1R,2R)-2-Carboxy-1-(2-chloro-benzyl)-2-hydroxy-ethylcarbamoyl]-2-(4-chloro-2-trifluoromethyl-benzyl)-2H-pyrazole-3-carboxylic acid], for which the Ki was 12.6 to 100 nM.

As for `O=C(N[C@H](Cc1ccccc1Cl)[C@@H](O)C(=O)O)c1cc(C(=O)O)n(Cc2ccc(Cl)c(OC(F)(F)F)c2)n1` [Example 2-13, 5-[(1R,2R)-2-Carboxy-1-(2-chloro-benzyl)-2-hydroxy-ethylcarbamoyl]-2-(4-chloro-3-trifluoromethoxy-benzyl)-2H-pyrazole-3-carboxylic acid], the Ki is 12.6 to 100 nM.

For `O=C(N[C@H](Cc1ccccc1Cl)[C@@H](O)C(=O)O)c1cc(C(=O)O)n(Cc2c(F)ccc(Cl)c2F)n1` [Example 2-14, 5-[(1R,2R)-2-Carboxy-1-(2-chloro-benzyl)-2-hydroxy-ethylcarbamoyl]-2-(3-chloro-2,6-difluoro-benzyl)-2H-pyrazole-3-carboxylic acid], the Ki is 1.26 to 10 nM.

Turning to `O=C(N[C@H](Cc1ccccc1Cl)[C@@H](O)C(=O)O)c1cc(C(=O)O)n(Cc2cc(F)ccc2Cl)n1` [Example 2-15, 5-[(1R,2R)-2-Carboxy-1-(2-chloro-benzyl)-2-hydroxy-ethylcarbamoyl]-2-(2-chloro-5-fluoro-benzyl)-2H-pyrazole-3-carboxylic acid], the Ki is 1.26 to 10 nM.

In the case of `O=C(N[C@H](Cc1ccccc1Cl)[C@@H](O)C(=O)O)c1cc(C(=O)O)n(Cc2cc(F)cc(Cl)c2)n1` [Example 2-16, 5-[(1R,2R)-2-Carboxy-1-(2-chloro-benzyl)-2-hydroxy-ethylcarbamoyl]-2-(3-chloro-5-fluoro-benzyl)-2H-pyrazole-3-carboxylic acid], the Ki is 1.26 to 10 nM.

Turning to `COc1c(F)cc(Cn2nc(C(=O)N[C@H](Cc3ccccc3Cl)[C@@H](O)C(=O)O)cc2C(=O)O)cc1Cl` [Example 2-17, 5-[(1R,2R)-2-Carboxy-1-(2-chloro-benzyl)-2-hydroxy-ethylcarbamoyl]-2-(3-chloro-5-fluoro-4-methoxy-benzyl)-2H-pyrazole-3-carboxylic acid], the Ki was 1.26 to 10 nM.
